The text below walks through data of article PMC8747639, “Novel Angiotensin-Converting Enzyme Inhibitory Peptides Identified from Walnut Glutelin-1 Hydrolysates: Molecular Interaction, Stability, and Antihypertensive Effects” (Nutrients, 2021).

No end group written: not given here.

Data set [1] has as its target T1, angiotensin-converting enzyme (ACE) from rabbit lung (rabbit) (UniProt P12822).
T1 sequence: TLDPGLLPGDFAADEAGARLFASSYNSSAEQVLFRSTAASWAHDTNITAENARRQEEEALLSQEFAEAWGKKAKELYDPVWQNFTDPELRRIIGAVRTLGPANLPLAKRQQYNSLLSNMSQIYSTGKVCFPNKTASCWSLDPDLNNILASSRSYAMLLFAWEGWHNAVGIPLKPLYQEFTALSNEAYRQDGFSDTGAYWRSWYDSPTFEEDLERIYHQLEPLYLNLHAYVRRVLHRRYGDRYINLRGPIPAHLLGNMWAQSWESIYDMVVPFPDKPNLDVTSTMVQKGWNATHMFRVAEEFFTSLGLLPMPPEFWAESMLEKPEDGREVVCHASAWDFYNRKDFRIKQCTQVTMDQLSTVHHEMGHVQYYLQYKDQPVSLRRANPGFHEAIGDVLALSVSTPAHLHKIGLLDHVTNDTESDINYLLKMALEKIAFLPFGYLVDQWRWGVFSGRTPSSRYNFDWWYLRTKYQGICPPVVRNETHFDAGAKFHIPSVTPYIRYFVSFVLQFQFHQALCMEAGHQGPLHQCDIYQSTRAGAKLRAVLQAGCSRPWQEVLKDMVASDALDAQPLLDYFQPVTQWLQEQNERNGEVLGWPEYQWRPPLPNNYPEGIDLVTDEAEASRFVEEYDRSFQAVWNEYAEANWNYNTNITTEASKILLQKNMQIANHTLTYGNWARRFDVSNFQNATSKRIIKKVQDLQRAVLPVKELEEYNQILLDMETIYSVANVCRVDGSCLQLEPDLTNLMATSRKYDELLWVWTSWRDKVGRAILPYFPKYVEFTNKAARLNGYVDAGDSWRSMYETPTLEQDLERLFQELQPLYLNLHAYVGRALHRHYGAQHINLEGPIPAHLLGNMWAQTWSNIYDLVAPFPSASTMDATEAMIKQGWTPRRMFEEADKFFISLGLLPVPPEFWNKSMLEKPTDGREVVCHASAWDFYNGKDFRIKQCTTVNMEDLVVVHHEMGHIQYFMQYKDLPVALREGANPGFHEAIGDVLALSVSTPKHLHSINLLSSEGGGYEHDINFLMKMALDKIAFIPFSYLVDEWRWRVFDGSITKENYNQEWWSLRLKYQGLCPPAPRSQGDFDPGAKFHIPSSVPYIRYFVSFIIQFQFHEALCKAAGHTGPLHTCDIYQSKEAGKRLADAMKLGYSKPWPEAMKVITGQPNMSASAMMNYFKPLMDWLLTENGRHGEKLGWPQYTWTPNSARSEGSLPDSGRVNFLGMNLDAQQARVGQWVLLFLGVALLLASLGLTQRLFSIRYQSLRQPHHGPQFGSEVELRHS

A further data set has as its target T2, ACE (from rabbit lung) (Oryctolagus cuniculus, UniProt P12822).
T2 construct: ACE (from rabbit lung) and hippuryl-histidyl-leucine (HHL) were purchased from Sigma Co; purchased Sigma Co., St. Louis, MO, USA; host or cells: rabbit lung (tissue-derived)
T2 sequence (P12822 34-1310): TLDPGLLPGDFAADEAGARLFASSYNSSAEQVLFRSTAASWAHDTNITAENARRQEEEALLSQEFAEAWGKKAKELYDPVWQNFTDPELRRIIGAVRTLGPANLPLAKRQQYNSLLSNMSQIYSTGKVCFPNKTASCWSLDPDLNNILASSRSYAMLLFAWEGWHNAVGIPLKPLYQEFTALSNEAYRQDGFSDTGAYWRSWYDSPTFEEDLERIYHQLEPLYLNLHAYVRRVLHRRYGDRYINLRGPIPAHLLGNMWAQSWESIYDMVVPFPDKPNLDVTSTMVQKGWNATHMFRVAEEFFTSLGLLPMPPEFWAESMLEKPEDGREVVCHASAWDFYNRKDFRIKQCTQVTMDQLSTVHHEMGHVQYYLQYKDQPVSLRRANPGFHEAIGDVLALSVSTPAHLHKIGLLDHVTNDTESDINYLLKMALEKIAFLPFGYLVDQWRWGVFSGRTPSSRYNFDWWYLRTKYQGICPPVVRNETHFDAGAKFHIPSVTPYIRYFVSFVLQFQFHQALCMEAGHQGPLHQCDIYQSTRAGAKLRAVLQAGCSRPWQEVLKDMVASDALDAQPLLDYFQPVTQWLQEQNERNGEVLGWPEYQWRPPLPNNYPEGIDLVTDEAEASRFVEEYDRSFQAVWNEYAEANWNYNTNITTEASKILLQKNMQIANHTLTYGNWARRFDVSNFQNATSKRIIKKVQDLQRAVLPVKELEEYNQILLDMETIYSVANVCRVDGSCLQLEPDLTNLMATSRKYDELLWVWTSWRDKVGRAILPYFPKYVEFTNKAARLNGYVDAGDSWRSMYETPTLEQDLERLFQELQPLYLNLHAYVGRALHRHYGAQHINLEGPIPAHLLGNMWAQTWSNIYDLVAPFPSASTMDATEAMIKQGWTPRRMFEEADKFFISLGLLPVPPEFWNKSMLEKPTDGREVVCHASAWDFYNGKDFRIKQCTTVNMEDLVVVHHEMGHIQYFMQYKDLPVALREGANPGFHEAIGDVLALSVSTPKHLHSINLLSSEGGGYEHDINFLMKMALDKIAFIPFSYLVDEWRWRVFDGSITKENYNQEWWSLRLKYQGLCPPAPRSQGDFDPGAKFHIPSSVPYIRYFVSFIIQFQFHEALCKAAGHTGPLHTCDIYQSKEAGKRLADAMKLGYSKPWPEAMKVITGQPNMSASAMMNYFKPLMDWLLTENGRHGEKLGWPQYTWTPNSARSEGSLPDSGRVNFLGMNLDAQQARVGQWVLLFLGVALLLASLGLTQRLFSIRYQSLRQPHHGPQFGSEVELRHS
Kind of data set: ACE inhibitory activity (HHL substrate, absorbance). The conditions noted are these: calculated by linear regression of the curve; read-out: IC50 on angiotensin converting enzyme (ACE). The format is biochemical. The text has this: The Grain, Oil and Protein Engineering Laboratory of Shaanxi Normal University (Xi’an, China) provided the defatted walnut meal. ACE (from rabbit lung) and hippuryl-histidyl-leucine (HHL) were purchased from Sigma Co., St. Louis, MO, USA. Pepsin (3 × 10^3 U/g) was obtained from Solarbio Science & Technology, Co., Ltd. (Beijing, China). High-performance liquid chromatography grade acetonitrile and trifluoroacetic acid were purchased from Fischer Scientific Co. (Waltham, MA, USA). The enzyme-linked immunosorbent assay kit for the detection of ACE, angiotensinogen (AGT), aldosterone (ALD), and Endothelin-1(ET-1) was purchased from Jiangsu Jingmei Biotechnology Co., Ltd. (YanCheng, China). The enzyme-linked immunosorbent assay kit for the detection of Ang II was obtained from Shanghai Kexing Biotechnology Co., Ltd., (Shanghai, China). and the nitric oxide (NO) detection kit was a product of Nanjing Jiancheng Institute of Biological Engineering (Nanjing, China), and other chemical reagents used in the experiment were of analytical grade.
Following a previous method reported by Zheng et al. (2017), we could determine the ACE inhibitory activity of glutelin-1 hydrolysate, separated fractions, active peptides, and all the other samples with 1.0 mg/mL Captopril as a positive control. The IC50 value (the concentrationof the inhibitory peptide (μM) had to inhibit 50% of the ACE activity) was calculated by linear regression of the curve.
The following formula was used to calculate the ACE inhibition rate (%): ACE inhibition rate(%)=(1-As/Ac)×100 where Ac represents ACE solution’s absorbance without an inhibitor and As represents the mixture containing samples.

The next data set has as its system pepsin and trypsin. Kind of data set: GI digestion stability of the synthesized peptides (pepsin, trypsin), read out as ACE inhibitory activity. The conditions noted are these: pepsin 1 mg/mL pH 2.0 37 °C 3 h, or trypsin 1.0 mg/mL pH 8.0 37 °C 4 h. The format is in vitro ADME. The protocol: We conducted a GI digestion stability analysis of the synthesized peptides according to the method proposed by Khueychai et al. (2018) with slight modifications. Briefly, the peptide solution was incubated with 1 mg/mL of pepsin solution (0.1 M HCl, pH 2.0) at 37 °C for 3 h. Subsequently, the pH value of the mixed solution was adjusted to 8.0 with 1.0 M NaOH, and 1.0 mg/mL of trypsin added and incubated at 37 °C for 4 h. Finally, the ACE inhibitory activity of the reaction solution could be determined after boiling for 10 min, cooling to room temperature, and centrifuging for 15 min at 10,000× g.

The nature of data set [2]: Temperature, pH, metal ion, sugar and salt treatment stability of the synthesized peptides, read out as ACE inhibition rate. The format is physicochemical. The conditions noted are these: 1.0 mg/mL peptide, read-out ACE inhibition rate. As for the experimental part: The effect of temperature, pH, metal ion, sugar, and salt treatments on the stabilities of two synthesized peptides, were determined by incubating 1.0 mg/mL of VERGRRITSV and FVIEPNITPA at 20 °C, 40 °C, 60 °C, 80 °C, and 100 °C for 2 h; 37 °C for 2 h at pH 2, 4, 6, 8, and 10; with 100 μg/mL of KCl, CaCl2, ZnSO4, MgSO4, and FeSO4 solution at 37 °C for 2 h; with glucose solutions of 2%, 4%, 8%, and 12% at 37 °C for 30 min; with NaCl solutions of 2%, 4%, 8%, and 12% at 37 °C for 30 min, respectively. The ACE inhibition rate was measured immediately after incubation.

Where [3] appears, read: NaCl solutions 2-12%, 37 °C for 30 min.

What is called IC50 is the concentration that inhibits the measured activity by half.

In data set [1], “Phe-Val-Ile-Glu-Pro-Asn-Ile-Thr-Pro-Ala (…) (peptide)” returned an IC50 of ACE inhibitory activity (enzyme activity assay, ACE from rabbit lung, substrate HHL) of 6.36 µM.

On to “VERGRRITSV [VERGRRITSV, Val-Glu-Arg-Gly-Arg-Arg-Ile-Thr-Ser-Val]”, for which the half-inhibitory concentration (IC50) at ACE (from rabbit lung) was 6.82 µM. In addition, the “ACE inhibitory activity under pepsin or trypsin digestion” value in the data set on pepsin and trypsin is on record as “could still maintain high ACE inhibitory activity”. Moreover, the “stability of ACE inhibitory activity with metal ions K+, Ca2+ and Mg2+” value in data set [2] (100 μg/mL KCl, CaCl2, MgSO4, 37 °C for 2 h) is “showed stability”. In data set [2] (setting [3]), the “stability of ACE inhibitory activity under high-concentration salt conditions” value is recorded as “less stable” and the “stability of ACE inhibitory activity under low-concentration salt conditions” value is “good stability”. In data set [2] (glucose solutions 2-12%, 37 °C for 30 min, low concentrations), the “stability of ACE inhibitory activity at low glucose concentration” value is on record as “showed stability”.

B1: Val-Glu-Arg-Gly-Arg-Arg-Ile-Thr-Ser-Val (…) (peptide)
peptide: VERGRRITSV
As for B1, the IC50 of ACE inhibitory activity (enzyme activity assay, ACE from rabbit lung, substrate HHL) in data set [1] came to 6.82 µM.
